Measurements reported in paper PMC12009420, “Dynamically chiral phosphonic acid-type metallo-β-lactamase inhibitors” (Communications Chemistry, 2025).
Where two headings read alike, the source gives them in different places.

Experiments:
VIM-2 = VIM-2 (Escherichia coli, UniProt Q5U7L7); test: Enzymatic metallo-β-lactamase assay on purified VIM-2; format: biochemical
Protocol: (§1) A few inhibitors were tested up to 1600 μM to ensure nearly complete inhibition. Solutions of 100 μL consisting of buffer, purified enzyme (1 nM for GIM-1 and VIM-2, 5 nM for NDM-1), inhibitor and reporter substrate nitrocefin (15 μM for VIM-2, 2 μM for GIM-1) or imipenem (30 μM for NDM-1) were incubated in triplicates on a 96 well plate for 5 min at 25 °C. Buffer solution consisted of 50 mM HEPES pH 7.2, 50 μM ZnSO4 and 0.4 mg/ml bovine serum albumine. Inhibitors were dissolved in DMSO but diluted to assure <2% DMSO in measured assay. Absorbance was measured at 482 nm (nitrocefin) and 300 nm (imipenem) on a SpectraMax M4 spectrophotometer. The initial velocity at each inhibitor concentration was analyzed in GraphPad Prism v9.3.1 and fitted to dose-response curves by non-linear regression (log [inhibitor] vs response) used to calculate IC50 (Supplementary Tables S2–5).

GIM-1 = GIM-1 (Pseudomonas aeruginosa, UniProt Q704V1); test: Enzymatic metallo-β-lactamase assay on purified GIM-1; format: biochemical
Chain of GIM-1 (Q704V1 entry or part of it): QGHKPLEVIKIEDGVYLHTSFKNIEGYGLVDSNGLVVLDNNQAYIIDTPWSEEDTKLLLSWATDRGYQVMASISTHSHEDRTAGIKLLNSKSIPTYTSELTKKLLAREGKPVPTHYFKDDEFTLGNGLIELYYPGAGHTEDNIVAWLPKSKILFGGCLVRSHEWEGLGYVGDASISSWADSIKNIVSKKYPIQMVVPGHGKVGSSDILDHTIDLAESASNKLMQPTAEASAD
Protocol: as §1

MTT cytotoxicity assay = format: cell-based; settings: human, HepG2 cells
Protocol: Cytotoxic activity of the compounds was measured through the MTT colorimetric assay as previously described[60] using the Colorimetric (MTT) Kit for Cell Survival and Proliferation (Merck/Millipore; Darmstadt, Germany). HepG2 cells (human hepatocellular carcinoma cell line) were kept in penicillin/streptomycin-free medium overnight and then they were treated with the compounds for 24 h. Subsequently, the MTT reagent was added to the cells and after 3 h of incubation, MTT-derived formazan crystals were solubilized in acidified isopropanol (0.1 mL isopropanol with 0.04 N HCl). Absorbance was measured with multiscan spectrophotometer (Thermo Fisher Scientific) at 530 nm test and 630 nm reference wavelengths. Cell viability was expressed as the percentage of viable, untreated cells. CC50 values were determined with GraphPad Prism software (v9.3.1) and adjusted to dose-response curves by non-linear regression (Supplementary Table S7).
8. Cytotoxocity against HepG2 cells
Table S7. CC50 values and viability curves of metallo-β-lactamase inhibitors tested on HepG2 […]
cells. […]
range. Data are shown as % via bility values ± SEM (n=4). Calculations were done using […]
Inhibitors CC50 (μM) HepG2 […]

In the case of `O=C(NC(c1ccccc1O)P(=O)(O)O)c1scc2c1CCCC2` (stereo not shown) [5g], the Ki (VIM-2; approximated from Dixon plots (1/v vs [I]) at one constant substrate concentration, ± SE, read-out: Estimated inhibition constant Ki VIM-2) is reported as 43 ± 15 µM, the “logIC50 VIM-2” value (VIM-2; log of IC50, ± SEM of logIC50) is reported as 1.06 ± 0.04 μM and the IC50 (VIM-2; purified enzyme 1 nM, nitrocefin 15 μM, pH 7.2, 25 °C) is reported as 12 µM. For the same compound, the “logIC50 GIM-1” value (GIM-1; log of IC50, ± SEM of logIC50) was 1.33 ± 0.11 μM, the IC50 (GIM-1; purified enzyme 1 nM, nitrocefin 2 μM, pH 7.2, 25 °C) was 21 µM and the CC50 at 24 h (MTT cytotoxicity assay; HepG2, MTT, read-out: CC50 (in viability curve)) was 1400 µM. The CC50 at 24 h (MTT cytotoxicity assay; MTT, 0.0025 mM - 1mM concentration range, read-out: Cytotoxicity CC50 HepG2) was 1420 µM.
